Experimental data: patent US20010056068A1, “METHOD OF TREATMENT AND PREVENTION OF NITRIC OXIDE DEFICIENCY-RELATED DISORDERS WITH CITRULLINE AND CITRULLINE DERIVATIVES” (priority 1998, published 2001)

What was measured:
[1] = system: normal and L-NAME-treated female rats; assay: Systolic blood pressure by telemetry after oral citrulline in normal and L-NAME-treated female rats; format: in vivo, rat; conditions: for decrease in blood pressure: 70 mg/rat at 24 h and 140 mg/rat at 48 h after pump insertion
Method: (§1) FIG. 1: The effect of a single administration of citrulline on the systolic blood pressure in normal and L-NAME-treated female rats. Intact female rats chronically instrumented with telemetric transducers allowing continuous monitoring of blood pressure were subcutaneusly implanted with osmotic mini-pumps releasing 50 mg/day L-NAME or 0.9% saline (controls). 24 hours after the pump insertion, the animals received 70 mg/rat citrulline orally per gavage. The systolic blood pressure was monitored for an additional 24 hours following citrulline treatment. N=5/group.
(§2) FIG. 2: The effect of multiple administration of citrulline on the systolic blood pressure in normal and L-NAME-treated female rats. Intact female rats chronically instrumented with telemetric transducers allowing continuous monitoring of blood pressure were subcutaneously implanted with osmotic mini-pumps releasing 50 mg/day L-NAME or vehicle (controls). 24 and 48 hours after the pump insertion, the animals received 70 and 140 mg/rat citrulline orally per gavage. The systolic blood pressure was monitored for an additional 24 hours following the second citrulline treatment. N=5/group
However, the systolic BP started to raise 4 hours after citrulline treatment.
In the experiment which results are presented in FIG. 2, the animals were treated twice with citrulline, i.e. 24 hours (70 mg/rat) and 48 after the start of L-NAME infusion. Similarly to FIG. 1, the first administration of citrulline was performed when the animals became hypertensive following L-NAME infusion.

[2] = system: normal and L-NAME-treated female rats; assay: Heart rate by telemetry after oral citrulline in normal and L-NAME-treated female rats; format: in vivo, rat
Method: as §1, with “3:” for “1:”, “heart rate” for “systolic blood pressure”, “heart rate” for “blood pressure”, “subcutaneously” for “subcutaneusly”, “N=5/group” for “N=5/group.”
At this time there was also a pronounced increase in heart rate in the L-NAME-treated rats (to 400-450 times/minute). Following a single oral citrulline (70 mg) administration, there was a rapid and very pronounced (p<0.05) decrease in heart rate to approximately 100 times/minute reaching a plateau already 1 hour after treatment. […] The effects of citrulline sustained for 24 hours in both treatment and control groups of citrulline treatment.

[3] = system: normal and L-NAME-treated female rats; assay: Observation of side-effects of citrulline administration in the rat experiments; format: in vivo; conditions: oral 70 or 140 mg/rat, any experiment
Method: as §1, §2
FIG. 3: The effect of a single administration of citrulline on the heart rate in normal and L-NAME-treated female rats. […] The heart rate was monitored for an additional 24 hours following citrulline treatment. […]

[4] = female rats, 50 mg/day L-NAME by subcutaneous osmotic mini-pump, before citrulline
[5] = control female rats infused with vehicle, single oral 70 mg citrulline

| Structure (SMILES) | blood pressure effect 24 hours after start of L-NAME infusion [1, 4] | heart rate 24 hours after start of L-NAME infusion [2, 4] | effect of second dose of 140 mg on blood pressure compared with first dose of 70 mg ([1]; L-NAME- and vehicle-treated female rats, multiple oral administration) | change in systolic blood pressure ([1]; L-NAME-treated (50 mg/day, osmotic mini-pump) female rats, single oral 70 mg citrulline 24 h after start of L-NAME infusion, N=5/group) | decrease in blood pressure ([1]; L-NAME-treated female rats, multiple oral administration) | change in blood pressure [1, 5] | time after treatment at which systolic BP started to rise [1, 5] [h] | hypertension and increase in heart rate induced by NOS inhibition with L-NAME ([1]; female rats, citrulline administered orally, overall conclusion) | decrease in blood pressure ([1]; vehicle-treated female rats, multiple oral administration) | time to plateau of heart rate decrease after treatment ([2]; L-NAME-treated female rats, single oral 70 mg citrulline) [h] | heart rate after treatment ([2]; L-NAME-treated female rats, single oral 70 mg citrulline 24 h after start of L-NAME infusion, p<0.05) | duration of the effects on heart rate ([2]; both treatment (L-NAME) and control groups, single oral 70 mg citrulline) [h] | change in heart rate [2, 5] | side-effects of citrulline administration [3] |
| --- | --- | --- | --- | --- | --- | --- | --- | --- | --- | --- | --- | --- | --- | --- |
| COC(=O)[C@@H](N)CCCNC(=N)N[N+](=O)[O-] [L-NAME, N^G-nitro-L-arginine methyl ester, reference compound] | substantial hypertension | 400-450 times/minute |  |  |  |  |  |  |  |  |  |  |  |  |
| NC(=O)NCCC[C@H](N)C(=O)O [citrulline] |  |  | slightly more effective | rapid and significant (p<0.05) decrease in systolic blood pressure | 30-40% | reduced blood pressure | 4 | partially attenuated | 30-40% | 1 | approximately 100 times/minute | 24 | reduced heart rate | No side-effects |
